Assay results from US12310975B2, “Modulators of BCL6 proteolysis and associated methods of use” (Arvinas Operations, Inc., priority 2019, dated 2025).

Key:
BCL6 [1] = target: T1, BCL6 (Homo sapiens (Human), UniProt P41182); test: BCL6 TR-FRET assay (BCL6-Avitag-Biotin / BCoR-Cy5 peptide); format: binding
Summary of the method: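 After 30 min room-temperature preincubation of compound titrations with 2 nM biotinylated BCL6-Avitag, 100 nM Cy5-labelled BCoR peptide plus 2 nM Eu-streptavidin were added and TR-FRET read 2 h later. HEPES pH 7.5/125 mM NaCl buffer with Triton X, glutathione (or DTT) and BSA.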

BCL6 [2] = target: T1, BCL6; test: Immunofluorescence high content imaging of BCL6 degradation in T47D cells; format: cell-based; settings: for Dmax: T47D
Summary of the method: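 BCL6 loss was quantified by high-content imaging (10×, 4 fields/well) after PFA fixation and anti-BCL6/Alexa-488 staining with Hoechst nuclear and CellMask counterstains. Compounds were applied for 3 days to T47D breast cancer cells in RPMI-10% FBS, 11 points, 3-fold steps, top 0.1 or 1 μM.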

SMILES | EC50 (BCL6 [1]) [nM] | IC50 (BCL6 [2]) [nM] | Dmax (BCL6 [2]) [%]
Cn1cc(-c2cc3cc(Nc4nc(N5CCC(CN6CCN(c7ccc8c(c7)C(=O)N(C7CCC(=O)NC7=O)C8=O)CC6)CC5)ncc4Cl)ccc3n(C)c2=O)cn1 (centres unmarked) [compound 205, 5-(4-((1-(5-chloro-4-((1-methyl-3-(1-methyl-1H-pyrazol-4-yl)-2-oxo-1,2-dihydroquinolin-6-yl)amino)pyrimidin-2-yl)piperidin-4-yl)methyl)piperazin-1-yl)-2-(2,6-dioxopiperidin-3-yl)isoindoline-1,3-dione] | > 100 | ≥ 100 | 
CNC(=O)COc1cc2cc(Nc3nc(N4CCN(CC5CCN(c6cccc7c6C(=O)N(C6CCC(=O)NC6=O)C7=O)CC5)CC4)ncc3Cl)ccc2n(C)c1=O (centres unmarked) [compound 207, 2-((6-((5-chloro-2-(4-((1-(2-(2,6-dioxopiperidin-3-yl)-1,3-dioxoisoindolin-4-yl)piperidin-4-yl)methyl)piperazin-1-yl)pyrimidin-4-yl)amino)-1-methyl-2-oxo-1,2-dihydroquinolin-3-yl)oxy)-N-methylacetamide] | 10 to 50 | < 10 | ≥ 70
CNC(=O)COc1cc2cc(Nc3nc(N4CCCN(c5ccc6c(c5)C(=O)N(C5CCC(=O)NC5=O)C6=O)CC4)ncc3Cl)ccc2n(C)c1=O (centres unmarked) [compound 208, 2-((6-((5-chloro-2-(4-(2-(2,6-dioxopiperidin-3-yl)-1,3-dioxoisoindolin-5-yl)-1,4-diazepan-1-yl)pyrimidin-4-yl)amino)-1-methyl-2-oxo-1,2-dihydroquinolin-3-yl)oxy)-N-methylacetamide] | 50 to 100 | 50 to 100 | 50 to 70
CNC(=O)[C@@H](C)Oc1cc2cc(Nc3nc(N4CCC(CN5CCN(c6ccc7c(c6)C(=O)N([C@H]6CCC(=O)NC6=O)C7=O)CC5)CC4)ncc3Cl)ccc2n(C)c1=O [compound 210, (R)-2-((6-((5-chloro-2-(4-((4-(2-((S)-2,6-dioxopiperidin-3-yl)-1,3-dioxoisoindolin-5-yl)piperazin-1-yl)methyl)piperidin-1-yl)pyrimidin-4-yl)amino)-1-methyl-2-oxo-1,2-dihydroquinolin-3-yl)oxy)-N-methylpropanamide] | 10 to 50 | ≥ 100 | 
CNC(=O)[C@H](C)Oc1cc2cc(Nc3nc(N4CCC(CN5CCN(c6ccc7c(c6)C(=O)N([C@H]6CCC(=O)NC6=O)C7=O)CC5)CC4)ncc3Cl)ccc2n(C)c1=O [compound 211, (S)-2-((6-((5-chloro-2-(4-((4-(2-((S)-2,6-dioxopiperidin-3-yl)-1,3-dioxoisoindolin-5-yl)piperazin-1-yl)methyl)piperidin-1-yl)pyrimidin-4-yl)amino)-1-methyl-2-oxo-1,2-dihydroquinolin-3-yl)oxy)-N-methylpropanamide] | > 100 | ≥ 100 | 
CNC(=O)[C@H](C)Oc1cc2cc(Nc3nc(N4CCC(CN5CCN(c6ccc7c(c6)C(=O)N([C@@H]6CCC(=O)NC6=O)C7=O)CC5)CC4)ncc3Cl)ccc2n(C)c1=O [compound 213, (S)-2-((6-((5-chloro-2-(4-((4-(2-((R)-2,6-dioxopiperidin-3-yl)-1,3-dioxoisoindolin-5-yl)piperazin-1-yl)methyl)piperidin-1-yl)pyrimidin-4-yl)amino)-1-methyl-2-oxo-1,2-dihydroquinolin-3-yl)oxy)-N-methylpropanamide] | > 100 | ≥ 100 | 
CNC(=O)COc1cc2cc(Nc3nc(N4CCCN(CC5CCN(c6ccc7c(c6)C(=O)N(C6CCC(=O)NC6=O)C7=O)CC5)CC4)ncc3Cl)ccc2n(C)c1=O (centres unmarked) [compound 215, 2-((6-((5-chloro-2-(4-((1-(2-(2,6-dioxopiperidin-3-yl)-1,3-dioxoisoindolin-5-yl)piperidin-4-yl)methyl)-1,4-diazepan-1-yl)pyrimidin-4-yl)amino)-1-methyl-2-oxo-1,2-dihydroquinolin-3-yl)oxy)-N-methylacetamide] | 50 to 100 | 10 to 50 | < 50
CC(=O)[C@H](C)Oc1cc2cc(Nc3nc(N4CCC(CN5CCN(c6ccc7c(c6)C(=O)N([C@H]6CCC(=O)NC6=O)C7=O)CC5)CC4)ncc3Cl)ccc2n(C)c1=O [compound 217, 5-(4-((1-(5-chloro-4-((1-methyl-2-oxo-3-(((S)-3-oxobutan-2-yl)oxy)-1,2-dihydroquinolin-6-yl)amino)pyrimidin-2-yl)piperidin-4-yl)methyl)piperazin-1-yl)-2-((S)-2,6-dioxopiperidin-3-yl)isoindoline-1,3-dione] | > 100 | ≥ 100 | < 50
CC(=O)[C@@H](C)Oc1cc2cc(Nc3nc(N4CCC(CN5CCN(c6ccc7c(c6)C(=O)N([C@@H]6CCC(=O)NC6=O)C7=O)CC5)CC4)ncc3Cl)ccc2n(C)c1=O [compound 218, 5-(4-((1-(5-chloro-4-((1-methyl-2-oxo-3-(((R)-3-oxobutan-2-yl)oxy)-1,2-dihydroquinolin-6-yl)amino)pyrimidin-2-yl)piperidin-4-yl)methyl)piperazin-1-yl)-2-((R)-2,6-dioxopiperidin-3-yl)isoindoline-1,3-dione] | > 100 | ≥ 100 | < 50
CC(=O)[C@H](C)Oc1cc2cc(Nc3nc(N4CCC(CN5CCN(c6ccc7c(c6)C(=O)N([C@@H]6CCC(=O)NC6=O)C7=O)CC5)CC4)ncc3Cl)ccc2n(C)c1=O [compound 219, 5-(4-((1-(5-chloro-4-((1-methyl-2-oxo-3-(((S)-3-oxobutan-2-yl)oxy)-1,2-dihydroquinolin-6-yl)amino)pyrimidin-2-yl)piperidin-4-yl)methyl)piperazin-1-yl)-2-((R)-2,6-dioxopiperidin-3-yl)isoindoline-1,3-dione] | > 100 | 50 to 100 | < 50
CNC(=O)COc1cc2cc(Nc3nc(N4CCN(C5CCN(c6cccc7c6C(=O)N(C6CCC(=O)NC6=O)C7=O)CC5)CC4)ncc3Cl)ccc2n(C)c1=O (centres unmarked) [compound 220, 2-((6-((5-chloro-2-(4-(1-(2-(2,6-dioxopiperidin-3-yl)-1,3-dioxoisoindolin-4-yl)piperidin-4-yl)piperazin-1-yl)pyrimidin-4-yl)amino)-1-methyl-2-oxo-1,2-dihydroquinolin-3-yl)oxy)-N-methylacetamide] | > 100 | < 10 | 50 to 70
CNC(=O)COc1cc2cc(Nc3nc(N4CCC(OC5CCN(c6ccc7c(c6)C(=O)N(C6CCC(=O)NC6=O)C7=O)CC5)CC4)ncc3Cl)ccc2n(C)c1=O (centres unmarked) [compound 221, 2-((6-((5-chloro-2-(4-((1-(2-(2,6-dioxopiperidin-3-yl)-1,3-dioxoisoindolin-5-yl)piperidin-4-yl)oxy)piperidin-1-yl)pyrimidin-4-yl)amino)-1-methyl-2-oxo-1,2-dihydroquinolin-3-yl)oxy)-N-methylacetamide] | > 100 | < 10 | 50 to 70

The next lines start with the values.

EC50 (BCL6 [1]) [nM] | IC50 (BCL6 [2]) [nM] | Dmax (BCL6 [2]) [%] | SMILES
> 100 | 50 to 100 |  | CC(=O)c1cc2cc(Nc3nc(N4CCC(CN5CCN(c6ccc7c(c6)C(=O)N(C6CCC(=O)NC6=O)C7=O)CC5)CC4)ncc3Cl)ccc2n(C)c1=O (centres unmarked) [compound 206, 5-(4-((1-(4-((3-acetyl-1-methyl-2-oxo-1,2-dihydroquinolin-6-yl)amino)-5-chloropyrimidin-2-yl)piperidin-4-yl)methyl)piperazin-1-yl)-2-(2,6-dioxopiperidin-3-yl)isoindoline-1,3-dione]
> 100 | 10 to 50 | ≥ 70 | CONC(=O)COc1cc2cc(Nc3nc(N4CCC(CN5CCN(c6ccc7c(c6)C(=O)N(C6CCC(=O)NC6=O)C7=O)CC5)CC4)ncc3Cl)ccc2n(C)c1=O (centres unmarked) [compound 209, 2-((6-((5-chloro-2-(4-((4-(2-(2,6-dioxopiperidin-3-yl)-1,3-dioxoisoindolin-5-yl)piperazin-1-yl)methyl)piperidin-1-yl)pyrimidin-4-yl)amino)-1-methyl-2-oxo-1,2-dihydroquinolin-3-yl)oxy)-N-methoxyacetamide]
10 to 50 | ≥ 100 |  | CNC(=O)[C@@H](C)Oc1cc2cc(Nc3nc(N4CCC(CN5CCN(c6ccc7c(c6)C(=O)N([C@@H]6CCC(=O)NC6=O)C7=O)CC5)CC4)ncc3Cl)ccc2n(C)c1=O [compound 212, (R)-2-((6-((5-chloro-2-(4-((4-(2-((R)-2,6-dioxopiperidin-3-yl)-1,3-dioxoisoindolin-5-yl)piperazin-1-yl)methyl)piperidin-1-yl)pyrimidin-4-yl)amino)-1-methyl-2-oxo-1,2-dihydroquinolin-3-yl)oxy)-N-methylpropanamide]
> 100 | ≥ 100 |  | CNC(=O)c1cc2cc(Nc3nc(N4CCC(CN5CCN(c6ccc7c(c6)C(=O)N(C6CCC(=O)NC6=O)C7=O)CC5)CC4)ncc3Cl)ccc2n(C)c1=O (centres unmarked) [compound 214, 6-((5-chloro-2-(4-((4-(2-(2,6-dioxopiperidin-3-yl)-1,3-dioxoisoindolin-5-yl)piperazin-1-yl)methyl)piperidin-1-yl)pyrimidin-4-yl)amino)-N,1-dimethyl-2-oxo-1,2-dihydroquinoline-3-carboxamide]
> 100 | 10 to 50 | < 50 | CC(=O)[C@@H](C)Oc1cc2cc(Nc3nc(N4CCC(CN5CCN(c6ccc7c(c6)C(=O)N([C@H]6CCC(=O)NC6=O)C7=O)CC5)CC4)ncc3Cl)ccc2n(C)c1=O [compound 216, 5-(4-((1-(5-chloro-4-((1-methyl-2-oxo-3-(((R)-3-oxobutan-2-yl)oxy)-1,2-dihydroquinolin-6-yl)amino)pyrimidin-2-yl)piperidin-4-yl)methyl)piperazin-1-yl)-2-((S)-2,6-dioxopiperidin-3-yl)isoindoline-1,3-dione]
